Data on one compound can be found in patent publication US20240024093A1, “INTRAOCULAR DRUG DELIVERY SYSTEMS AND METHODS OF USE” (SpyGlass Pharma, Inc., priority 2022, published 2024).

A short description of series [1]: daily release or elution of Bimatoprost in vitro versus time (FIG. 8). The series is classed as physicochemical. As to conditions: four-hundred-day study. The text has this:
FIG. 8 is an exemplary graph of daily release or elution of a pharmaceutical or therapeutic agent in vitro versus time. […] The target release rate in this study on rabbits was 0.050 to 0.100 micrograms per day.

A short description of series [2]: Bimatoprost sampled in the aqueous humor of dogs over time (FIG. 9). The series is classed as in vivo. The text has this: FIG. 9 is an exemplary graph of a therapeutic agent delivered to the aqueous humor of an eye of canines versus time.
In this example, there was a low dose group of dogs (Grp 1), a mid-dose group of dogs (Grp 2), a high dose group of dogs (Grp 3), and a placebo group of dogs (Grp 4).

Turning to `CCNC(=O)CCC/C=C\C[C@@H]1[C@@H](/C=C/[C@@H](O)CCc2ccccc2)[C@H](O)C[C@@H]1O` [Bimatoprost], in series [1], the average release rate entry is “less than 0.100 micrograms per day” and the “release rate over the study (release kinetics)” value is on record as “essentially a zero-order and/or a steady state elution rate”. Moreover, the “level of Bimatoprost in the aqueous humor (elution kinetics)” value in series [2] (low dose (Grp 1), mid-dose (Grp 2), high dose (Grp 3) groups, study period of about one hundred thirteen days) is “zero-order elution rate”. In series [2] (low, mid and high dose groups, FIG. 9), the “mean measurements of Bimatoprost in the aqueous humor (dose dependence)” value is listed as “increased with the higher doses”.
